Assay results reported in patent US9737495B2, “Process for obtaining purified pterostilbene and methods of use thereof” (Indus Biotech Private Limited, priority 2009, dated 2017).
Where two headings read alike, the source gives them in different places.

Legend:
3-NP induced HD in rats [1] = experiment: 3-NP induced HD in rats: neurological behavioral grading; format: in vivo, Wistar rats; conditions: for neurological behavioral changes (neurological problems score, grades 0-5) / neurological score, % change from cyclo + 3-NPA treatment: 30 mg/kg p.o. + 3-NPA
Method: (§1) 3-NP (20 mg/kg i.p., daily in 2 divided doses) was administered to all the Wistar rats of weight range 250-300 g. in two divided doses at 12 hr interval for 9-11 days until disease is induced (acutely ill). It took 12 days to completely induce the disease symptoms. 3-NP was diluted with water and the pH will be adjusted upto 7.4 with NaOH. It was administered intraperitoneally (i.p.) at a dose of 10 mg/kg every 12 hrs (8:00 am and 8:00 pm) for 12 days (total daily dose 20 mg/kg). The observations were done on day 0, 7, 9, 11 and 13. The test compound was administered for the same period p.o. (per oral) one hour before 3-NP injection (at 7:00 AM daily) at dose of 30 mg/kg, p.o. The experimental groups were as follows: 1) Healthy Control: No treatment 2) HD control (3-NP+cyclodextrin) 3) TEST COMPOUND (30 mg/kg, p.o. daily complexed with cyclodextrin) treated.
Behavioral changes were recorded daily, and immediately before sacrifice, graded according to the neurological scale described. A total of 6 grades included: • Grade 0: normal behavior; • Grade 1: general slowness in movement due to mild hind-limb impairment; • Grade 2: prominent gait abnormality with poor coordination; • Grade 3: nearly complete hind-limb paralysis; • Grade 4: incapability to move due to four-limb impairment; and • Grade 5: recumbence.

[2] = molecular target: T1, Human recombinant deacetylase sirtuin SIRT2 (Homo sapiens, UniProt Q8IXJ6); experiment: SIRT2 inhibition, Fluor de Lys fluorimetric deacetylase assay (in vitro); format: biochemical; conditions: read-out: IC50 for SIRT2 (converted)
T1 construct: host or cells: E. coli
T1 sequence (Q8IXJ6 1-389): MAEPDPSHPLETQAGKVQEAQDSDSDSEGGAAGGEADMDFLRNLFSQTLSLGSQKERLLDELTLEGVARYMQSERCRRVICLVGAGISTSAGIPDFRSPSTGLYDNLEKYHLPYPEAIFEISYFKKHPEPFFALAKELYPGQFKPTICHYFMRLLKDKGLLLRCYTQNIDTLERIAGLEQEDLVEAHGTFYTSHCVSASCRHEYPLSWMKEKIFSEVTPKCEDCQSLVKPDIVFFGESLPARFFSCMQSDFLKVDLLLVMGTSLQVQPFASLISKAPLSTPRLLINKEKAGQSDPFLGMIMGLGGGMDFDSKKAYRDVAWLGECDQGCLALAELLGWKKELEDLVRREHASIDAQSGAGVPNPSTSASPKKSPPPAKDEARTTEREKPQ
Method: (§2) Human recombinant deacetylase sirtuin SIRT2 expressed in E. coli was used. Test compound (1, 10, 100 and 1000 μg/ml conc.) and/or vehicle was pre-incubated with 2 μg/ml enzyme in Tris-HCl buffer pH 8.0 for 15 minutes at 37° C. The reaction is initiated by addition of 25 μM Fluor de Lys-SIRT1 and 150 μM NAD for another 120 minute incubation period and is terminated by further addition of Fluor de Lys Developer. Determination of the amount of de-acetate Fluor de Lys formed is read spectrofluorimetrically with excitation at 360 nm and emission at 465 nm. The concentration-response (% inhibition) curve was plotted and IC50 was calculated.
as §2, with “37 °C.” for “37° C.”

SIRT1 = molecular target: T2, SIRT1 (Homo sapiens, UniProt Q96EB6); experiment: SIRT1 inhibition, Fluor de Lys fluorimetric deacetylase assay (in vitro); format: biochemical; conditions: read-out: IC50 for SIRT1 (converted)
T2 sequence (Q96EB6 1-747): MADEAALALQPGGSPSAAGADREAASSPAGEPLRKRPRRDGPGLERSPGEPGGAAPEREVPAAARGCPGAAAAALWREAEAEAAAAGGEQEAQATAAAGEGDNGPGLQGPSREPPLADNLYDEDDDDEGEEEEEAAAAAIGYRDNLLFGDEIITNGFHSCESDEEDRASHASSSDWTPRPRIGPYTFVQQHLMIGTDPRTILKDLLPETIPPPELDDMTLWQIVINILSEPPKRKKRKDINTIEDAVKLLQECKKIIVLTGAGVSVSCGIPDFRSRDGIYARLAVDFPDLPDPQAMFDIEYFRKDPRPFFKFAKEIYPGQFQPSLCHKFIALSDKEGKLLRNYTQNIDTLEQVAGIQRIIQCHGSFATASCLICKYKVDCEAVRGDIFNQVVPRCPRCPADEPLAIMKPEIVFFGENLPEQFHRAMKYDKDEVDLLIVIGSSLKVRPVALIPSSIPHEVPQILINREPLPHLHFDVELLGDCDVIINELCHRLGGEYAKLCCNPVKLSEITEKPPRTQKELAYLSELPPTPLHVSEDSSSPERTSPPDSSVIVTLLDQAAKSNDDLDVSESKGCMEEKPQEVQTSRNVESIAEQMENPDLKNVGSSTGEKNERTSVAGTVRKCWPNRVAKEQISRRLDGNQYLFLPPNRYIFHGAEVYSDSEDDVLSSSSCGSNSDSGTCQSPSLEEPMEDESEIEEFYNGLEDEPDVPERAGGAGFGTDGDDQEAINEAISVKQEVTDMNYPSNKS

3-NP induced HD in rats [3] = experiment: 3-NP induced HD in rats: brain wet weight; format: in vivo, Wistar rats; conditions: Day 13, 30 mg/kg p.o. + 3-NPA
Method: as §1
On day 13, the brains of the rats were dissected out and cleaned. The wet weight of the brains were recorded for each rat. The results are also graphically represented in FIG. 3
On day 13, the brains of the rats were dissected out and cleaned. The wet weight of the brains were recorded for each rat.

3-NP induced HD in rats [4] = experiment: 3-NP induced HD in rats: body weight; format: in vivo, Wistar rats; conditions: for % difference of body weights: 30 mg/kg p.o. daily complexed with cyclodextrin + 3-NPA 20 mg/kg/day i.p., n=6
Method: as §1

3-NP induced HD in rats [5] = experiment: 3-NP induced HD in rats: squares crossed in open field test; format: in vivo, Wistar rats; conditions: 30 mg/kg p.o. + 3-NPA
Method: as §1

[6] = test conc. 1-1000 μg/ml, pH 8.0, 37° C.

COc1cc(/C=C/c2ccc(O)cc2)cc(OC)c1 [Test compound, pterostilbene]
neurological behavioral changes (neurological problems score, grades 0-5) (3-NP induced HD in rats [1]; Day 7): 0 | neurological behavioral changes (neurological problems score, grades 0-5) (3-NP induced HD in rats [1]; Day 9): 1 | neurological score, % change from cyclo + 3-NPA treatment (3-NP induced HD in rats [1]; Day 9): −83.33% | neurological behavioral changes (neurological problems score, grades 0-5) (3-NP induced HD in rats [1]; Day 11): 7 | neurological score, % change from cyclo + 3-NPA treatment (3-NP induced HD in rats [1]; Day 11): −30% | neurological behavioral changes (neurological problems score, grades 0-5) (3-NP induced HD in rats [1]; Day 13 (after 12-day treatment)): 13 | neurological score, % change from cyclo + 3-NPA treatment (3-NP induced HD in rats [1]; Day 13): −23.52% | reduction of neurological problems as compared to vehicle (cyclo+3-NPA) group (3-NP induced HD in rats [1]; after 12-day treatment (Day 13), 30 mg/kg p.o.): 23.52% | IC50 ([2]; conversion of the μg/ml value): 45 µM | IC50 [2, 6]: 45.6 µM | IC50 (SIRT1; conversion of the μg/ml value): 47 µM | IC50 (SIRT1; [6]): 47.2 µM | Brain weight (g)-Mean ± SEM (3-NP induced HD in rats [3]): 1.605 ± 0.0659 g | % difference of body weights (3-NP induced HD in rats [4]; Day 7): 1.90 ± 3.72% | % difference of body weights (3-NP induced HD in rats [4]; Day 9): −0.82 ± 3.77% | % difference of body weights (3-NP induced HD in rats [4]; Day 11): −2.53 ± 3.70% | % difference of body weights (3-NP induced HD in rats [4]; Day 13): −6.08 ± 4.10% | reduction in body weight (3-NP induced HD in rats [4]; after 11 days, 30 mg/kg p.o. + 3-NP (3-NP alone 12.48%)): 2.53% | number of squares crossed in open field test (3-NP induced HD in rats [5]; Day 7): 144.17 ± 7.47 | number of squares crossed in open field test (3-NP induced HD in rats [5]; Day 9): 125.67 ± 6.22 | number of squares crossed in open field test (3-NP induced HD in rats [5]; Day 11): 109.00 ± 13.72 | number of squares crossed in open field test (3-NP induced HD in rats [5]; Day 13): 77.83 ± 6.92
